Data published in US10729668B2, “Ketobutyrate compounds and compositions for treating age-related symptoms and diseases” (The Regents of the University of California, priority 2014, dated 2020).

What was measured:
[1] = tested on: C2C12 Cells; experiment: Oxygen consumption rate (OCR) in C2C12 cells, Seahorse XF-24; format: cell-based, mouse; settings: 1 hour treatment
Experimental: Measurement of oxygen consumption rates (OCR). OCR measurements were made using a Seahorse XF-24 analyzer (Seahorse Bioscience). C2C12 Cells were seeded in Seahorse XF-24 cell culture microplates at 30,000 cells per well in DMEM media supplemented with 10% FBS and 10 mM glucose, and incubated at 37° C. and 5% CO2 overnight. Treatment with α-KB or DMSO (vehicle control) was for 1 hour. Cells were washed in unbuffered DMEM medium (pH 7.4, 10 mM glucose) just before measurements, and maintained in this buffer with indicated concentrations of α-KB. OCR was measured three times under basal conditions and normalized to protein concentration per well.

[2] = tested on: C2C12 Cells; experiment: Cellular ROS measurement with H2DCF-DA; format: cell-based, mouse; settings: 3 hours of drug treatment
Experimental: Measurement of ROS. C2C12 cells were seeded in 96-well plates at density of 250,000 cells/mL. Reactive oxygen species (ROS) levels were measured using 2′, 7′-dichlorodihydrofluorescein diacetate (H2DCF-DA) after 3 hours of drug treatment.

[3] = tested on: male mice; experiment: In vivo ischemia reperfusion injury, coronary artery occlusion; set-up: species or system mouse; settings: 800 μM single bolus via tail vein at onset of reperfusion, 24 hours reperfusion, n=6
Experimental: The LAD is occluded in male mice for 30 minutes followed by a 24 hour reperfusion. At the onset of reperfusion one bolus of α-KB or PBS was applied via tail vein.
To examine the cardioprotective role of α-KB, an in vivo model of ischemia reperfusion injury was used. The left coronary artery was occluded for 30 minutes in male mice followed by 24 hours of reperfusion. One single bolus of PBS (vehicle control) or α-KB (800 μM) was applied through the tail vein at the onset of reperfusion (FIG. 9A).

[4] = tested on: C57BL/6 male mice; experiment: Transverse aortic constriction (TAC) induced heart failure and cardiac hypertrophy; format: in vivo, mouse
Experimental: Surgical procedure was performed one day before treatment with vehicle or α-KB. Cardiac output was assessed 3 weeks post-treatment by determining the cardiac ejection fraction (EF) by echo.
Transverse aortic constriction (TAC) in mice was used to induce pressure overload-induced heart failure and cardiac hypertrophy. TAC surgical procedure was performed one day before treatment with vehicle or α-KB. C57BL/6 male mice were treated with α-KB at 30 mg/kg body weight per day in drinking water. Cardiac output was assessed 3 weeks post-treatment by determining the cardiac ejection fraction (EF) measured by Echo.

[5] = tested on: ATP synthase; experiment: ATP synthase inhibition
[6] = tested on: ETC Complex I diaphorase (NADH: acceptor oxidoreductase); experiment: Complex I Enzyme Activity Microplate Assay (diaphorase); format: biochemical, bovine; settings: 200 and 800 μM
Experimental: To assess if α-KB can affect the diaphorase (NADH: acceptor oxidoreductase) activity of Complex I, the Complex I Enzyme Activity Microplate Assay Kit (Abcam, ab109721) was used. The assay was performed according to the protocol provided. Bovine Heart Mitochondria lysate (Abcam, ab110338) was added with detergent, followed by incubation on ice for 30 minutes to release Complex I and then centrifuged at 12,000 g, 4° C. for 20 minutes. Supernatant was collected and diluted with the buffer provided and then added to a Complex I antibody-coated 96-well plate. After a 3 hour incubation followed by 2× wash with stabilizer buffer, the wells were added with 200 μL of reaction mix containing 50, 200, or 800 μM α-KB or vehicle control (distilled water). Each condition was performed in triplicates. Kinetic measurements of absorbance at 450 nm with 1 minute intervals were taken, and Complex I diaphorase activity was calculated from the slope of the absorbance to time. The readings were normalized to vehicle mean (as 100 percent).

[7] = tested on: Isolated hearts; experiment: Isolated heart ischemia and reperfusion (LVDP); settings: 30 minutes ischemia, 60 minutes reperfusion, post-ischemic administration
Experimental: Isolated hearts were subjected to 30 minutes ischemia followed by 60 minutes of reperfusion with control buffer, 2-KB, (R)-2-hydroxybutyrate, (R)-3-hydroxybutyrate (also known as ketone body), α-KG, and the Complex I inhibitor rotenone. LVDP is shown as a function of time.

[8] = tested on: Aged mice (22-23 month old C57BL/6J); experiment: Aged mice fed α-KB in drinking water for 7 months; format: in vivo
Experimental: Aged mice (22-23 month old C57BL/6J), including both males and females, were fed either water or α-KB (8 mM in drinking water or 90 mg/kg body weight) for 7 months. […] Mice were examined at least twice a week for signs of ill health, and severely sick or immobilized mice were subject to termination. The lifespan of α-KB treated male group was extended. All the males in untreated control group (5 of 5) died or were terminated due to severe illness before the completion of the 7 months test. Remarkably, most of the males in the α-KB treated group (4 of 5) lived healthily and were still in excellent health at the end of the 7 months study period.

CCC(=O)C(=O)O [α-KB, α-ketobutyrate]
basal respiration [1]: inhibited | maximal respiration (mitochondrial respiration upon FCCP treatment) [1]: inhibited | cellular ROS [2]: increases the cellular ROS | ratio of infarct size to AAR [3]: 31.2±3.6 | mortality [4]: appeared to decrease mortality | heart (mg)/body (g) ratio ([4]; end of experiment (5 weeks), Mean, STEDV): 10.72±1.98 | inhibition of ATP synthase [5]: does not inhibit | Complex I diaphorase activity [6]: directly inhibits | heart function after ischemia (LVDP) [7]: restores heart function after ischemia | adverse effects ([8]; 8 mM in drinking water or 90 mg/kg body weight, 7 months): no adverse effects | gray hair versus untreated group ([8]; aged female mice): reduced | lifespan, females, treated versus untreated ([8]; aged female mice): indistinguishable | hair density versus untreated control ([8]; aged female mice, 7 months): higher | effect on gray hair and hair density ([8]; aged male mice): minimal | lifespan, male group ([8]; aged male mice): extended | males alive and healthy at end of the 7 months study period ([8]; aged male mice): 4 of 5 | cataracts ([8]; aged mice): no cataracts | liver appearance ([8]; male and female aged mice): greatly improved liver appearance
